Test results: patent US10450573B2, “Compositions and methods for regulation of gene expression with, and detection of, folinic acid and folates” (The Board of Trustees of the Leland Stanford Junior …, priority 2014, dated 2019)

B1: tFA8-18: truncated (6S)-FA specific RNA aptamer, SEQ ID NO: 23 (nucleic acid)
chain: CUCGUCAAUGCAUAUGUAACGUUAACGGCGCUACCUGUACAAUGCACGUUCCGAGCGCCCGGAGACGAG
modifications: unmodified RNA

Key:
[1] = cited from earlier work; for concentration that can accumulate in human blood plasma: intravenous infusion
[2] = Surface plasmon resonance aptamer binding assay, (6R)-folinic acid; conditions: for ka, (6R)-Folinic Acid / kd, (6R)-Folinic Acid / Kd: SPR, 25° C., selection buffer pH 7.4, 5 mM MgCl2; for ka, (6R)-Folinic Acid / kd, (6R)-Folinic Acid: 1:1 binding model; for Selectivity: between (6R)- and (6S)-folinic acid diastereomers
Method: (§1) Surface plasmon resonance characterization of aptamer binding properties. Nucleic acid aptamer preparation. RNA aptamers were prepared by PCR amplification of DNA template sequences (Table 4, Integrated DNA Technologies, Coralville, Iowa) using forward and reverse primers Biacore-fwd and Biacore-rev, respectively, followed by transcription of the PCR product using the MEGAshortscript T7 transcription kit (Life Technologies) and purification of the transcription product using the RNA Clean & Concentrator kit (Zymo Research, Irvine, Calif.), according to the manufacturers' instructions. Aptamers were resuspended in selection buffer, denatured at 65° C. for 5 min, and cooled to room temperature directly before use.
(§2) Sensor chip surface generation. Experiments were performed on a Biacore X100 instrument (GE Healthcare) at 25° C. A CM5 sensor chip (GE Healthcare) was equilibrated with HBS-N buffer. The DNA linker strand (5′-AmMC6-[…]) (Integrated DNA Technologies) (SEQ ID NO:133), with an amino modified 6-carbon linker on the 5′ end, was immobilized to the chip surface. The carboxymethylated dextran surface of the CM5 chip was activated for 7 min at a flow rate of 10 μL/min using a 1:1 volume ratio of 0.4 M 1-ethyl-3-(3-dimethylaminopropyl) carbodiimide (GE Healthcare) and 0.1 M N-hydroxysuccinimide (GE Healthcare). A molar ratio of 1:30 of DNA strand to hexadecyltrimethylammonium bromide (Sigma-Aldrich, St. Louis, Mo.) was diluted in 10 mM HEPES buffer (Sigma-Aldrich) to a final concentration of 20 μM and 0.6 mM, respectively, and injected over the activated surface for 10 min at a flow rate of 5 μL/min. Excess activated groups were blocked by an injection of 1 M ethanolamine (GE Healthcare), pH 8.5, for 7 min at a flow rate of 10 μL/min. The immobilization reaction was performed sequentially on both flow cells (FC1, FC2) and yielded approximately 4,000 RU of the DNA strand.
(§3) Aptamer binding assay. The Biacore X100 instrument was primed three times with running buffer prior to all binding assays. For each assay, three startup cycles were performed to stabilize the sensorgram baseline. For each startup cycle, the aptamer (˜40-70 ng/μL, ˜3 μM) was captured onto the sample flow cell (FC2) for 40 s at a flow rate of 5 μL/min. 25 mM NaOH (GE Healthcare) was injected for 30 s at a flow rate of 30 μL/min over both flow cells to regenerate the sensor surface. A dilution series of (6R)- or (6S)-folinic acid (Schircks Laboratories, Jona, Switzerland) was prepared in selection buffer and filtered through a 0.2 μm membrane (Pall Corporation, Port Washington, N.Y.). For each concentration sample, the aptamer was captured onto the sample flow cell (FC2) for 40 s at a flow rate of 5 μL/min, the folinic acid solution was injected over both flow cells at a flow rate of 30 μL/min to monitor target association, and selection buffer was injected over both flow cells at a flow rate of 30 μL/min to monitor target dissociation. Association and dissociation phase lengths used were chosen based on time needed to reach equilibrium. Aptamer and folinic acid were removed from the sensor surface by injecting 25 mM NaOH for 30 s at a flow rate of 30 μL/min over both flow cells.
(§4) Data processing and analysis were performed using Biacore X100 Evaluation Software version 2.0 (GE Healthcare). A double-referencing method was performed to process all datasets. Data from the sample flow cell (FC2) were referenced first by subtracting data from the reference flow cell (FC1) to correct for bulk refractive index changes, nonspecific binding, injection noise, matrix effects, and baseline drift. Reference-subtracted data (FC2−FC1) were double-referenced with a blank injection of running buffer to account for any systematic drift over the course of the injection. Double-referenced data were fit to a 1:1 binding model for kinetic analysis or steady-state affinity model for thermodynamic analysis. […]

[3] = Surface plasmon resonance aptamer binding assay, (6S)-folinic acid; conditions: SPR, 25° C., selection buffer pH 7.4, 5 mM MgCl2; for ka, (6S)-Folinic Acid / kd, (6S)-Folinic Acid: 1:1 binding model
Method: as §1, §2, §3, §4

[4] = SPR binding to (6R,S)-5-methyl-5,6,7,8-tetrahydrofolic acid; conditions: ligand is mixture of (6R) and (6S) diastereomers; for Kd: read-out: KD, (6R,S)-5-methyl-THF
[5] = SPR binding to (6R,S)-5-formyl-5,6,7,8-tetrahydropteroic acid; conditions: ligand is mixture of (6R) and (6S) diastereomers; for Kd: read-out: KD, (6R,S)-5-formyl-THPteroic Acid

Row | Molecule | plasma concentration compared to the (6S) diastereomer ([1]; in vivo) | plasma half-life compared to the (6S) diastereomer ([1]; in vivo) | concentration that can accumulate in human blood plasma [1] | ka, (6R)-Folinic Acid [2] | kd, (6R)-Folinic Acid [2] | Kd [2] | Selectivity [2] | ka, (6S)-Folinic Acid [3] | kd, (6S)-Folinic Acid [3] | Kd [3] | ka, (6R,S)-5-methyl-THF [4] | kd, (6R,S)-5-methyl-THF [4] | Kd [4] | ka, (6R,S)-5-formyl-THPteroic Acid [5] | kd, (6R,S)-5-formyl-THPteroic Acid [5] | Kd [5]
1 | Nc1nc2c(c(=O)[nH]1)N(C=O)[C@H](CNc1ccc(C(=O)N[C@@H](CCC(=O)O)C(=O)O)cc1)CN2 [(6R)-folinic acid] | ≤ 18 fold | up to 15 fold | up to 77.6 μM |  |  |  |  |  |  |  |  |  |  |  |  | 
2 | tFA8-16: truncated (6R)-FA specific RNA aptamer, SEQ ID NO: 22 (CUCCUUCCGGUGACCUGGACGUUAUUUCCGGCCGAAGGGAG; unmodified RNA) |  |  |  | 33000 M⁻¹ s⁻¹ | 0.0602 s⁻¹ | 1.82 µM | 684 | 682 M⁻¹ s⁻¹ | 0.85 s⁻¹ | 1250 µM |  |  |  |  |  | 
3 | tFA8-11: truncated (6R)-FA specific RNA aptamer, SEQ ID NO: 20 (UGCAGUGCUUGGUACGUUAUAUUCAGCUGCA; unmodified RNA) |  |  |  | 116000 M⁻¹ s⁻¹ | 0.00468 s⁻¹ | 0.0405 µM | 855 | 6560 M⁻¹ s⁻¹ | 0.227 s⁻¹ | 34.6 µM | 14300 M⁻¹ s⁻¹ | 0.195 s⁻¹ | 13.6 µM | 750000 M⁻¹ s⁻¹ | 0.00568 s⁻¹ | 0.0757 µM
4 | tFA8-4: truncated (6R)-FA specific RNA aptamer, SEQ ID NO: 18 (GCUUGGCGUUGCGUGGUACGUUAUAUUCCGGCCAAGC; unmodified RNA) |  |  |  | 269000 M⁻¹ s⁻¹ | 0.00515 s⁻¹ | 0.0192 µM | 260 | 21100 M⁻¹ s⁻¹ | 0.105 s⁻¹ | 4.98 µM | 33500 M⁻¹ s⁻¹ | 0.211 s⁻¹ | 6.29 µM | 135000 M⁻¹ s⁻¹ | 0.00494 s⁻¹ | 0.0366 µM
5 | Nc1nc(=O)c2c([nH]1)NC[C@H](CNc1ccc(C(=O)N[C@@H](CCC(=O)O)C(=O)O)cc1)N2C=O [(6S)-folinic acid] |  |  | ≤ 7.95 µM |  |  |  |  |  |  |  |  |  |  |  |  | 
6 | tFA6-8: truncated (6R)-FA specific RNA aptamer, SEQ ID NO: 21 (UUCCCGUCAGGUACGUUAUAUUCGGGGGA; unmodified RNA) |  |  |  | 77900 M⁻¹ s⁻¹ | 0.0176 s⁻¹ | 0.225 µM | 567 | 2330 M⁻¹ s⁻¹ | 0.297 s⁻¹ | 128 µM |  |  |  |  |  | 
7 | tFA10-7: truncated (6S)-FA specific RNA aptamer, SEQ ID NO: 24 (ACGGCGAAGAGUCAAAGCAUCCCCUGCGAAAGCAGGGCCCGU; unmodified RNA) |  |  |  |  |  | 74.4 µM | 515 | 53600 M⁻¹ s⁻¹ | 0.00775 s⁻¹ | 0.144 µM |  |  | 81.8 µM | 35200 M⁻¹ s⁻¹ | 0.00697 s⁻¹ | 0.198 µM
8 | B1 |  |  |  | 94 M⁻¹ s⁻¹ | 0.00355 s⁻¹ | 37.7 µM | 600 | 36100 M⁻¹ s⁻¹ | 0.00227 s⁻¹ | 0.0628 µM |  |  | 447 µM | 53200 M⁻¹ s⁻¹ | 0.00633 s⁻¹ | 0.119 µM
